Measured values as given in patent US10800782B2, “Inhibitors of cellular metabolic processes” (Agios Pharmaceuticals, Inc., priority 2016, dated 2020).

Target: T1, MAT2A (Homo sapiens, UniProt P31153)
T1 construct: His6; made in house; host or cells: SF9 insect cells
Test: MAT2A biochemical assay (colorimetric inorganic phosphate detection, PiColorLock)
Conditions: recombinant His6-tagged MAT2A 1 μg/ml; 60 minutes preincubation at 25° C.; L-Met 80 μM, ATP 100 μM; 60 minutes reaction; read at 623 nm; read-out: MAT2A Inhibition Score
In short: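 Colorimetric malachite green readout of phosphate released when MAT2A turns over L-Met and ATP, after 60 min at room temperature. Enzyme: SF9-expressed His6-tagged MAT2A at 1 μg/ml. Buffer: Tris pH 8.0, 50 mM KCl, 15 mM MgCl2, 300 uM EDTA, 0.005% BSA. Compounds tested as ten-point three-fold dilutions.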

T1 sequence (P31153 whole entry): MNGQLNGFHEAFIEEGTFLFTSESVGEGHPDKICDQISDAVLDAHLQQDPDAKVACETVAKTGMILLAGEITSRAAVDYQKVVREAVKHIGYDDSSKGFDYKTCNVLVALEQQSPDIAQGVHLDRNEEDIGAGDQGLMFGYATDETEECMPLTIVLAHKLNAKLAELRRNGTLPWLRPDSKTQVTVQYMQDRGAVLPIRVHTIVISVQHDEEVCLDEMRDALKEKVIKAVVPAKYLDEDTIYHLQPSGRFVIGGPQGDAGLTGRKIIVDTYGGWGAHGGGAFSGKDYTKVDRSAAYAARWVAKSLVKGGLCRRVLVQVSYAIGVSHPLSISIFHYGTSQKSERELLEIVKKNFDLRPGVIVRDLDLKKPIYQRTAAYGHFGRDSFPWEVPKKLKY

IC50	Structure (SMILES)
< 100 nM	Cc1cc(Nc2[nH]c3c(-c4ccccc4)c(-c4ccccc4)nn3c(=O)c2-c2ccc3ncccc3c2)n[nH]1 [Compound 188, 5-((5-methyl-1H-pyrazol-3-yl)amino)-2,3-diphenyl-6-(quinolin-6-yl)pyrazolo[1,5-a]pyrimidin-7(4H)-one]
< 100 nM	COc1ccc(-c2c(Nc3cc(N)[nH]n3)[nH]c3c(-c4ccccc4)c(-c4ccccc4)nn3c2=O)cc1 [Compound 186, 5-((5-amino-1H-pyrazol-3-yl)amino)-6-(4-methoxyphenyl)-2,3-diphenylpyrazolo[1,5-a]pyrimidin-7(4H)-one]
100 to 1000 nM	Cc1[nH]c2c(N3CCCCC3)c(-c3ccccc3)nn2c(=O)c1-c1ccc(N)cc1 [Compound 307, 6-(4-aminophenyl)-5-methyl-2-phenyl-3-(piperidin-1-yl)pyrazolo[1,5-a]pyrimidin-7(4H)-one]
< 100 nM	Cc1[nH]c2c(N3CCC(F)(F)CC3)c(-c3ccccc3)nn2c(=O)c1-c1ccc2ncccc2c1 [Compound 207, 3-(4,4-difluoropiperidin-1-yl)-5-methyl-2-phenyl-6-(quinolin-6-yl)pyrazolo[1,5-a]pyrimidin-7(4H)-one]
< 100 nM	O=C(CO)Nc1[nH]c2c(-c3ccccc3)c(-c3ccccc3)nn2c(=O)c1-c1ccc2ncccc2c1 [Compound 173, 2-hydroxy-N-(7-oxo-2,3-diphenyl-6-(quinolin-6-yl)-4,7-dihydropyrazolo[1,5-a]pyrimidin-5-yl)acetamide]
< 100 nM	COc1ccc(-c2c(Nc3ncns3)[nH]c3c(-c4ccccc4)c(-c4ccccc4)nn3c2=O)cc1 [Compound 147, 5-((1,2,4-thiadiazol-5-yl)amino)-6-(4-methoxyphenyl)-2,3-diphenylpyrazolo[1,5-a]pyrimidin-7(4H)-one]
< 100 nM	COc1ccc(-c2c(Nc3nnc(C)s3)[nH]c3c(-c4ccccc4)c(-c4ccccc4)nn3c2=O)cc1 [Compound 285, 6-(4-methoxyphenyl)-5-((5-methyl-1,3,4-thiadiazol-2-yl)amino)-2,3-diphenylpyrazolo[1,5-a]pyrimidin-7(4H)-one]
< 100 nM	COc1ccc(-c2c(Nc3nncs3)[nH]c3c(-c4ccccc4)c(-c4ccccc4)nn3c2=O)cc1 [Compound 144, 5-((1,3,4-thiadiazol-2-yl)amino)-6-(4-methoxyphenyl)-2,3-diphenylpyrazolo[1,5-a]pyrimidin-7(4H)-one]
< 100 nM	NC(=O)NCc1[nH]c2c(-c3ccccc3)c(-c3ccccc3)nn2c(=O)c1-c1ccc2ncccc2c1 [Compound 235, 1-((7-oxo-2,3-diphenyl-6-(quinolin-6-yl)-4,7-dihydropyrazolo[1,5-a]pyrimidin-5-yl)methyl)urea]
< 100 nM	COc1ccc(-c2c(Nc3ccon3)[nH]c3c(-c4ccccc4)c(-c4ccccc4)nn3c2=O)cc1 [Compound 138, 5-(isoxazol-3-ylamino)-6-(4-methoxyphenyl)-2,3-diphenylpyrazolo[1,5-a]pyrimidin-7(4H)-one]
< 100 nM	COc1ccc(-c2c(Nc3nccnc3N)[nH]c3c(-c4ccccc4)c(-c4ccccc4)nn3c2=O)cc1 [Compound 128, 5-((3-aminopyrazin-2-yl)amino)-6-(4-methoxyphenyl)-2,3-diphenylpyrazolo[1,5-a]pyrimidin-7(4H)-one]
100 to 1000 nM	Cc1[nH]c2c(N3CCCCC3)c(-c3ccccc3)nn2c(=O)c1C1CCCC1 [Compound 300, 6-cyclopentyl-5-methyl-2-phenyl-3-(piperidin-1-yl)pyrazolo[1,5-a]pyrimidin-7(4H)-one]
< 100 nM	Cc1[nH]c2c(-c3ccccc3)c(-c3ccccc3)nn2c(=O)c1-c1ccc(O)c(OCCO)c1 [Compound 261, 6-(4-hydroxy-3-(2-hydroxyethoxy)phenyl)-5-methyl-2,3-diphenylpyrazolo[1,5-a]pyrimidin-7(4H)-one]
< 100 nM	CCOc1ccc(-c2c(C)[nH]c3c(-c4ccccc4)c(-c4ccccc4)nn3c2=O)cc1 [Compound 210, 6-(4-ethoxyphenyl)-5-methyl-2,3-diphenylpyrazolo[1,5-a]pyrimidin-7(4H)-one]
1000 to 10000 nM	O=C(Nc1[nH]c2c(-c3ccccc3)c(-c3ccccc3)nn2c(=O)c1-c1ccc2ncccc2c1)C1CC1 [Compound 326, N-(7-oxo-2,3-diphenyl-6-(quinolin-6-yl)-4,7-dihydropyrazolo[1,5-a]pyrimidin-5-yl)cyclopropanecarboxamide]
< 100 nM	COc1ccc(-c2c(Nc3cccnc3)[nH]c3c(-c4ccccc4)c(-c4ccccc4)nn3c2=O)cc1 [Compound 103, 6-(4-methoxyphenyl)-2,3-diphenyl-5-(pyridin-3-ylamino)pyrazolo[1,5-a]pyrimidin-7(4H)-one]

IC50	Structure (SMILES)
100 to 1000 nM	COc1ccc(-c2c(CNC(=O)[C@@H](N)C(C)C)[nH]c3c(-c4ccccc4)c(-c4ccccc4)nn3c2=O)cc1 [Compound 340, (S)-2-amino-N-((6-(4-methoxyphenyl)-7-oxo-2,3-diphenyl-4,7-dihydropyrazolo[1,5-a]pyrimidin-5-yl)methyl)-3-methylbutanamide]
< 100 nM	Cc1[nH]c2c(-c3ccccc3)c(-c3ccccc3)nn2c(=O)c1-c1ccc2ncn(C)c2c1 [Compound 256, 5-methyl-6-(1-methyl-1H-benzo[d]imidazol-6-yl)-2,3-diphenylpyrazolo[1,5-a]pyrimidin-7(4H)-one]
100 to 1000 nM	Cc1[nH]c2c(-c3ccccc3)c(-c3ccccc3)nn2c(=O)c1-c1ccc2occc2c1 [Compound 334, 6-(benzofuran-5-yl)-5-methyl-2,3-diphenylpyrazolo[1,5-a]pyrimidin-7(4H)-one]
< 100 nM	O=c1c(-c2ccc(O)cc2)c(Nc2cnccn2)[nH]c2c(C3=CCCCC3)c(-c3ccccc3)nn12 [Compound 194, 3-cyclohexenyl-6-(4-hydroxyphenyl)-2-phenyl-5-(pyrazin-2-ylamino)pyrazolo[1,5-a]pyrimidin-7(4H)-one]
< 100 nM	COc1ccc(-c2c(Nc3ccccn3)[nH]c3c(-c4ccccc4F)c(-c4ccccc4)nn3c2=O)cc1 [Compound 179, 3-(2-fluorophenyl)-6-(4-methoxyphenyl)-2-phenyl-5-(pyridin-2-ylamino)pyrazolo[1,5-a]pyrimidin-7(4H)-one]
< 100 nM	COc1ccc(-c2c(Nc3ccccn3)[nH]c3c(-c4cccc(Cl)c4)c(-c4ccccc4)nn3c2=O)cc1 [Compound 178, 3-(3-chlorophenyl)-6-(4-methoxyphenyl)-2-phenyl-5-(pyridin-2-ylamino)pyrazolo[1,5-a]pyrimidin-7(4H)-one]
< 100 nM	COc1ccc(-c2c(Nc3nncs3)[nH]c3c(C4=CCCCC4)c(-c4ccccc4)nn3c2=O)cc1 [Compound 167, 5-((1,3,4-thiadiazol-2-yl)amino)-3-(cyclohex-1-en-1-yl)-6-(4-methoxyphenyl)-2-phenylpyrazolo[1,5-a]pyrimidin-7(4H)-one]
< 100 nM	COc1ccc(-c2c(Nc3nonc3N)[nH]c3c(-c4ccccc4)c(-c4ccccc4)nn3c2=O)cc1 [Compound 149, 5-((4-amino-1,2,5-oxadiazol-3-yl)amino)-6-(4-methoxyphenyl)-2,3-diphenylpyrazolo[1,5-a]pyrimidin-7(4H)-one]
< 100 nM	Cc1[nH]c2c(-c3ccccc3)c(-c3cc[nH]n3)nn2c(=O)c1-c1ccc2ncccc2c1 [Compound 280, 5-methyl-3-phenyl-2-(1H-pyrazol-3-yl)-6-(quinolin-6-yl)pyrazolo[1,5-a]pyrimidin-7(4H)-one]
1000 to 10000 nM	Cc1[nH]c2c(N3CCCCC3)c(-c3ccccc3)nn2c(=O)c1-c1cc[nH]c(=O)c1 [Compound 303, 5-methyl-6-(2-oxo-1,2-dihydropyridin-4-yl)-2-phenyl-3-(piperidin-1-yl)pyrazolo[1,5-a]pyrimidin-7(4H)-one]
< 100 nM	COc1ccc(-c2c(Nc3cscn3)[nH]c3c(-c4ccccc4)c(-c4ccccc4)nn3c2=O)cc1 [Compound 192, 6-(4-methoxyphenyl)-2,3-diphenyl-5-(thiazol-4-ylamino)pyrazolo[1,5-a]pyrimidin-7(4H)-one]
100 to 1000 nM	Cc1[nH]c2c(N3CCCCC3)c(-c3ccccc3)nn2c(=O)c1C1CC1 [Compound 298, 6-cyclopropyl-5-methyl-2-phenyl-3-(piperidin-1-yl)pyrazolo[1,5-a]pyrimidin-7(4H)-one]
< 100 nM	COc1ccc(-c2c(CO)[nH]c3c(C4=CCCCC4)c(-c4ccccc4)nn3c2=O)cc1 [Compound 229, 3-(cyclohex-1-en-1-yl)-5-(hydroxymethyl)-6-(4-methoxyphenyl)-2-phenylpyrazolo[1,5-a]pyrimidin-7(4H)-one]
1000 to 10000 nM	O=C1CNC(=O)N1Cc1[nH]c2c(-c3ccccc3)c(-c3ccccc3)nn2c(=O)c1-c1ccc2ncccc2c1 [Compound 322, 3-((7-oxo-2,3-diphenyl-6-(quinolin-6-yl)-4,7-dihydropyrazolo[1,5-a]pyrimidin-5-yl)methyl)imidazolidine-2,4-dione]
100 to 1000 nM	Cc1[nH]c2c(N3CCC(F)(F)C3)c(-c3ccccc3)nn2c(=O)c1-c1ccc2nccn2c1 [Compound 317, 3-(3,3-difluoropyrrolidin-1-yl)-6-(imidazo[1,2-a]pyridin-6-yl)-5-methyl-2-phenylpyrazolo[1,5-a]pyrimidin-7(4H)-one]
< 100 nM	COc1ccc(-c2c(NCCO)[nH]c3c(-c4ccccc4)c(-c4ccccc4)nn3c2=O)cc1 [Compound 286, 5-((2-hydroxyethyl)amino)-6-(4-methoxyphenyl)-2,3-diphenylpyrazolo[1,5-a]pyrimidin-7(4H)-one]

Structure (SMILES)	IC50
Cc1[nH]c2c(C3=CCCCC3)c(-c3ccccc3)nn2c(=O)c1-c1ccc(OP(=O)(O)O)cc1 [Compound 295, 4-(3-(cyclohex-1-en-1-yl)-5-methyl-7-oxo-2-phenyl-4,7-dihydropyrazolo[1,5-a]pyrimidin-6-yl)phenyl dihydrogen phosphate]	< 100 nM
